Assay results as given in patent publication US20190315806A1, “POLYMYXIN DERIVATIVE, PREPARATION METHOD AND APPLICATION THEREOF” (priority 2016, published 2019).
Converted amounts (≈) assume the structure as drawn. Read-outs that look alike come from different tables or passages of the source. Where a SMILES comes first, the peptide text is derived from it. Bridges are numbered along the chain shown (N, C = ends). [ ]: non-standard residue; d: D form. The star is where a group is joined. Benzoyl(4-OPh) = O=C(c1ccc(Oc2ccccc2)cc1)*; dPhe(4-CN) = N#Cc1ccc(C[C@@H](N)C(=O)O)cc1; dPhe(4-NH2) = Nc1ccc(C[C@@H](N)C(=O)O)cc1; Heptanoyl(6-Me) = CC(C)CCCCC(=O)*; X2 = CC[C@H](C)CCCCC(=O)*; Heptanoyl = CCCCCCC(=O)*; Dab = NCC[C@H](N)C(=O)O

Columns and labels:
Type in all cases: cell-based
[1] = tested on: Escherichia coli ATCC 25922
Procedure, shortened: (§1)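 MIC by CLSI agar two-fold dilution: compounds at final 0.03–128 μg/mL in agar, strains inoculated at 10^4 CFU/dot by multipoint inoculator. Incubation 18–24 h at 35 °C; MIC is the lowest concentration giving no colony growth.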

[2] = tested on: Pseudomonas aeruginosa ATCC 27853
Procedure, shortened: as §1

[3] = tested on: Staphylococcus epidermidis ATCC 12228
Procedure, shortened: as §1

[4] = tested on: Acinetobacter baumannii ATCC 19606
Procedure, shortened: as §1

[5] = Nephrotoxicity test, renal cytotoxicity by MTT method; settings: African green monkey
Method: African green monkey kidney cells (Vero cells) were cultured in MEM medium (Hyclone), 10% fetal calf serum (Invitrogen) was added before use, cultured at 37° C. under 5% CO2.
Experiment was carried out using MTT method. After digestion, cells in logarithmic growth phase were counted, then the cells were inoculated in a 96-well culture plate. After incubation for 24 h to be adherent, cells were treated with a concentration gradient of a compound of the invention (e.g., a compound prepared in the Embodiments) and the controls. After 72 h, the culture solution was removed, 100 uL of MTT reagent at a concentration of 0.5 mg/ml was added, the medium was removed after incubating for 3 hours in a 37° C. incubator. Add 150 μL DMSO solvent to each well, mix for 3 min, after which the absorbance at 570 nm (A) was measured with a microplate reader.
Cell viability %=(Adosed cell−Abackground)/(Acontrol cell−Abackground)×100%. The average value of 3 parallel wells was taken for each detection point, and the inhibition curve was drawn to calculate the IC50 value.
The African green monkey kidney cells (Vero cells) used in the experiment were from the Cell Resource Center of the Institute of Basic Medicine, Chinese Academy of Medical Sciences.

[6] = tested on: Klebsiella pneumoniae ATCC BAA-2146 (NDM-1); assay: Antibacterial activity, MIC by dish double dilution method
Procedure, shortened: as §1

[7] = agar dilution, 10^4 CFU/dot, 18 to 24 hours at 35° C.

Structure (SMILES) | MIC E. coli ATCC 25922 ([1]; ATCC 25922) [µg/mL] | MIC P. aeruginosa ATCC 27853 ([2]; ATCC 27853) [µg/mL] | MIC S. epidermidis ATCC 12228 ([3]; ATCC 12228) [µg/mL] | MIC A. baumannii ATCC 19606 ([4]; ATCC 19606) [µg/mL] | IC50 at 72 h [5] [µg/mL] | MIC K. pneumoniae ATCC BAA-2146 (NDM-1) ([6]; ATCC BAA-2146) [µg/mL] | MIC E. coli ATCC 25922 [1, 7] [µg/mL] | MIC P. aeruginosa ATCC 27853 [2, 7] [µg/mL] | MIC S. epidermidis ATCC 12228 [3, 7] [µg/mL] | MIC A. baumannii ATCC 19606 [4, 7] [µg/mL] | IC50 at 72 h ([5]; MTT, 72 h treatment, 3 parallel wells, read-out: Renal cytotoxicity IC50, Vero cells) [µg/mL] | MIC K. pneumoniae ATCC BAA-2146 (NDM-1) [6, 7] [µg/mL]
CC[C@H](C)[C@@H]1NC(=O)[C@@H](CC(C)C)NC(=O)[C@H](CCN)NC(=O)[C@@H](NC(=O)[C@H](CCN)NC(=O)[C@@H](NC(=O)[C@H](CCN)NC(=O)CCCCC(C)C)[C@@H](C)O)CCNC(=O)[C@H]([C@@H](C)O)NC(=O)[C@H](CCN)NC(=O)[C@H](CCN)NC1=O [Compound 75, 6-methylheptanoyl-Dab-Thr-Dab-ring(4-10)[Dab-Dab-D-Leu-Ile-Dab-Dab-Thr]] ({Heptanoyl(6-Me)}-[Dab]T[Dab][Dab][Dab][dL]I[Dab][Dab]T; lactam 4-C) | 1 (≈ 0.865 µM) | 2 (≈ 1.73 µM) | 128 (≈ 111 µM) | 1 (≈ 0.865 µM) | 199 ± 13.1 (≈ 172 µM) | 1 (≈ 0.865 µM) | – | – | – | – | – | –
CC[C@H](C)CCCCC(=O)N[C@@H](CCN)C(=O)N[C@H](C(=O)N[C@H](CO)C(=O)N[C@H]1CCNC(=O)[C@H]([C@@H](C)O)NC(=O)[C@H](CCN)NC(=O)[C@H](CCN)NC(=O)[C@H]([C@@H](C)O)NC(=O)[C@@H](Cc2ccccc2)NC(=O)[C@H](CCN)NC1=O)[C@@H](C)O [Compound 115, (S)-6-methyloctanoyl-Dab-Thr-D-Ser-ring(4-10)[Dab-Dab-D-Phe-Thr-Dab-Dab-Thr]] (X2-[Dab]T[dS][Dab][Dab][dF]T[Dab][Dab]T; lactam 4-C) | 0.25 (≈ 0.212 µM) | 2 (≈ 1.7 µM) | >128 | 0.12 (≈ 0.102 µM) | 160 ± 23.4 (≈ 136 µM) | 0.5 (≈ 0.424 µM) | – | – | – | – | – | –
CC[C@H](C)CCCCC(=O)N[C@@H](CCN)C(=O)N[C@H](C(=O)N[C@@H](CCN)C(=O)N[C@H]1CCNC(=O)[C@H]([C@@H](C)O)NC(=O)[C@H](CCN)NC(=O)[C@H](CCN)NC(=O)[C@H](CC(C)C)NC(=O)[C@@H](Cc2ccc(C#N)cc2)NC(=O)[C@H](CCN)NC1=O)[C@@H](C)O [Compound 13, (S)-6-methyloctanoyl-Dab-Thr-Dab-ring(4-10)[Dab-Dab-D-Phe(4-CN)-Lue-Dab-Dab-Thr]] (X2-[Dab]T[Dab][Dab][Dab][dPhe(4-CN)]L[Dab][Dab]T; lactam 4-C) | 0.5 (≈ 0.407 µM) | 2 (≈ 1.63 µM) | 16 (≈ 13 µM) | 0.25 (≈ 0.203 µM) | 186 ± 11.3 (≈ 151 µM) | 1 (≈ 0.814 µM) | – | – | – | – | – | –
CC[C@H](C)CCCCC(=O)N[C@@H](CCN)C(=O)N[C@H](C(=O)N[C@@H](CCN)C(=O)N[C@H]1CCNC(=O)[C@H](CC(C)C)NC(=O)[C@H](CCN)NC(=O)[C@H](CCN)NC(=O)[C@H](CC(C)C)NC(=O)[C@@H](Cc2ccccc2)NC(=O)[C@H](CCN)NC1=O)[C@@H](C)O [Compound 127, (S)-6-methyloctanoyl-Dab-Thr-Dab-ring(4-10)[Dab-Dab-D-Phe-Lue-Dab-Dab-Lue]] (X2-[Dab]T[Dab][Dab][Dab][dF]L[Dab][Dab]L; lactam 4-C) | 4 (≈ 3.29 µM) | 4 (≈ 3.29 µM) | 8 (≈ 6.58 µM) | 2 (≈ 1.65 µM) | 17.2 ± 2.16 (≈ 14.1 µM) | 4 (≈ 3.29 µM) | – | – | – | – | – | –
CC[C@H](C)CCCCC(=O)N[C@@H](CCN)C(=O)N[C@H](C(=O)N[C@@H](CCN)C(=O)N[C@H]1CCNC(=O)[C@H]([C@@H](C)O)NC(=O)[C@H](CCN)NC(=O)[C@H](CCN)NC(=O)[C@H](CC(C)C)NC(=O)[C@@H](Cc2ccc(N)cc2)NC(=O)[C@H](CCN)NC1=O)[C@@H](C)O [Compound 11, (S)-6-methyloctanoyl-Dab-Thr-Dab-ring(4-10)[Dab-Dab-D-Phe(4-NH2)-Lue-Dab-Dab-Thr]] (X2-[Dab]T[Dab][Dab][Dab][dPhe(4-NH2)]L[Dab][Dab]T; lactam 4-C) | 1 (≈ 0.821 µM) | 2 (≈ 1.64 µM) | 128 (≈ 105 µM) | 1 (≈ 0.821 µM) | 166 ± 15.7 (≈ 137 µM) | 2 (≈ 1.64 µM) | – | – | – | – | – | –
CCCCCCC(=O)N[C@@H](CCN)C(=O)N[C@H](C(=O)N[C@@H](CCN)C(=O)N[C@H]1CCNC(=O)[C@H]([C@@H](C)O)NC(=O)[C@H](CCN)NC(=O)[C@H](CCN)NC(=O)[C@H](CC(C)C)NC(=O)[C@@H](Cc2ccccc2)NC(=O)[C@H](CCN)NC1=O)[C@@H](C)O [Compound 45, heptanoyl-Dab-Thr-Dab-ring(4-10)[Dab-Dab-D-Phe-Leu-Dab-Dab-Thr]] (Heptanoyl-[Dab]T[Dab][Dab][Dab][dF]L[Dab][Dab]T; lactam 4-C) | 0.5 (≈ 0.425 µM) | 1 (≈ 0.851 µM) | 128 (≈ 109 µM) | 0.5 (≈ 0.425 µM) | 160 ± 13.6 (≈ 136 µM) | 0.5 (≈ 0.425 µM) | – | – | – | – | – | –
CC[C@H](C)CCCCC(=O)N[C@@H](CCN)C(=O)N[C@H](C(=O)N[C@@H](CCN)C(=O)N[C@H]1CCNC(=O)[C@H]([C@@H](C)O)NC(=O)[C@H](CCN)NC(=O)[C@H](CCN)NC(=O)[C@H](CC(C)C)NC(=O)[C@@H](Cc2ccccc2)NC(=O)[C@H](CCN)NC1=O)[C@@H](C)O [Compound 42, (S)-6-methyloctanoyl-Dab-Thr-Dab-ring(4-10)[Dab-Dab-D-Phe-Leu-Dab-Dab-Thr]] (X2-[Dab]T[Dab][Dab][Dab][dF]L[Dab][Dab]T; lactam 4-C) | – | – | – | – | – | – | 0.5 (≈ 0.415 µM) | 2 (≈ 1.66 µM) | 32 (≈ 26.6 µM) | 1 (≈ 0.831 µM) | 71.3 ± 6.08 (≈ 59.2 µM) | 0.5 (≈ 0.415 µM)
CC(C)C[C@@H]1NC(=O)[C@@H](Cc2ccccc2)NC(=O)[C@H](CCN)NC(=O)[C@@H](NC(=O)[C@H](CCN)NC(=O)[C@@H](NC(=O)[C@H](CCN)NC(=O)c2ccc(Oc3ccccc3)cc2)[C@@H](C)O)CCNC(=O)[C@H]([C@@H](C)O)NC(=O)[C@H](CCN)NC(=O)[C@H](CCN)NC1=O [Compound 8, 4-(phenoxy)benzoyl-Dab-Thr-Dab-ring(4-10)[Dab-Dab-D-Phe-Lue-Dab-Dab-Thr]] ({Benzoyl(4-OPh)}-[Dab]T[Dab][Dab][Dab][dF]L[Dab][Dab]T; lactam 4-C) | 4 (≈ 3.18 µM) | 8 (≈ 6.35 µM) | 16 (≈ 12.7 µM) | 2 (≈ 1.59 µM) | – | 4 (≈ 3.18 µM) | – | – | – | – | – | –
